Measured values taken from patent publication US6844465B2, “Method for preparing highly stable crystals of aspartame derivative” (Ajinomoto Co., Inc., priority 1998, dated 2005).

Experiments:
[1] = Stability test at 70° C. of crystals (remaining ratio of N-(3,3-dimethylbutyl)-APM); assay type: physicochemical
Method: Then, the obtained G-type crystals, D-type crystals and A-type crystals of N-(3,3-dimethylbutyl)-APM were tested at 70° C., concerning their stability. […] The relationship between the storage time and the remaining ratio of N-(3,3-dimethylbutyl)-APM in this test will be shown below in Table 1.

[2] = on the weight basis, cited from earlier work

## COC(=O)[C@H](Cc1ccccc1)NC(=O)[C@H](CC(=O)O)NCCC(C)(C)C [D-type crystals, N-[N-(3,3-dimethylbutyl)-L-α-aspartyl]-L-phenylalanine methyl ester]
[1]; time elapsed 0 hrs, listed as D
  Remaining Ratio (wt. %): 95 wt. %
[1]; time elapsed 100 hrs, listed as D
  Remaining Ratio (wt. %): 96 wt. %
[1]; time elapsed 271 hrs
  Remaining Ratio (wt. %): 77 wt. %
[1]; time elapsed 271 hrs, listed as D
  Remaining Ratio (wt. %): 77 wt. %

## COC(=O)[C@H](Cc1ccccc1)NC(=O)[C@H](CC(=O)O)NCCC(C)(C)C [G-type crystals, N-[N-(3,3-dimethylbutyl)-L-α-aspartyl]-L-phenylalanine methyl ester]
[1]; time elapsed 0 hrs, listed as G
  Remaining Ratio (wt. %): 96 wt. %
[1]; time elapsed 100 hrs, listed as G
  Remaining Ratio (wt. %): 48 wt. %
[1]; time elapsed 271 hrs
  Remaining Ratio (wt. %): 18 wt. %
[1]; time elapsed 271 hrs, listed as G
  Remaining Ratio (wt. %): 18 wt. %

## COC(=O)[C@H](Cc1ccccc1)NC(=O)[C@H](CC(=O)O)NCCC(C)(C)C [N-(3,3-dimethylbutyl)-ATM, N-[N-(3,3-dimethylbutyl)-L-α-aspartyl]-L-phenylalanine methyl ester]
[2]; times that of aspartame
  sweetening potency relative to aspartame: at least 50 times
[2]; times that of sucrose
  sweetening potency relative to sucrose (table sugar): about 10,000 times

## COC(=O)[C@H](Cc1ccccc1)NC(=O)[C@H](CC(=O)O)NCCC(C)(C)C [A-type crystals, N-[N-(3,3-dimethylbutyl)-L-α-aspartyl]-L-phenylalanine methyl ester]
[1]; time elapsed 0 hrs, listed as A
  Remaining Ratio (wt. %): 95 wt. %
[1]; time elapsed 100 hrs, listed as A
  Remaining Ratio (wt. %): 94 wt. %
[1]; time elapsed 271 hrs
  Remaining Ratio (wt. %): 96 wt. %
[1]; time elapsed 271 hrs, listed as A
  Remaining Ratio (wt. %): 96 wt. %
